Common to all, as to assay: Bliss excess, mean over the matrix (fraction); higher = more synergy
The subject of one experiment is LN-405 (Glioblastoma). A digest of the protocol:
(§1)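 After 24 hours at 37°C and 5% CO2 in 1536-well plates, cells in DMEM/F12 or RPMI plus 10% FBS received two-drug dose matrices for 72 hours. Viability came from CellTiter-Glo 2.0 luminescence and was scaled as inhibition, anchored at 0 by vehicle wells and at 1 by blank wells. Combination Emax is taken as the second-highest inhibition in the matrix, and Bliss excess as the observed combination effect less EA + EB − EA·EB, with EA and EB the single-agent effects.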

Experiment [1] has as its system CAL-29 (Bladder Carcinoma). The method in brief: as §1
The test system of the next experiment is A498 (Kidney Carcinoma). The method in brief:
as §1

In a further experiment the test system is NCI-H2591 (Mesothelioma). A digest of the protocol:
as §1

The test system of the next experiment is 8-MG-BA (Glioblastoma). The method in brief: as §1
The subject of the next experiment is ARH-77 (Non-Cancerous). The method in brief: as §1
In experiment [2] the test system is BICR22 (Oral Cavity Carcinoma). The method in brief: as §1
A further experiment has as its system IGR-37 (Melanoma). The method in brief:
as §1

Experiment [3] concerns HCC1954 (Breast Carcinoma). The method in brief: as §1
Experiment [4] deals with ONS-76 (Other Solid Carcinomas). The method in brief: as §1
For experiment [5], the system named is SISO (Cervical Carcinoma). The method in brief:
as §1

Experiment [6] has as its system SK-MES-1 (Squamous Cell Lung Carcinoma). The method in brief:
as §1

The test system of experiment [7] is SK-MG-1 (Low Grade Glioma). The method in brief:
as §1

Another experiment concerns FU97 (Gastric Carcinoma). The method in brief:
as §1

The subject of a further experiment is U-2-OS (Osteosarcoma). A digest of the protocol: as §1
In experiment [8] the test system is OS-RC-2 (Kidney Carcinoma). A digest of the protocol: as §1
The test system of experiment [9] is KARPAS-422 (B-Cell Non-Hodgkin's Lymphoma). A digest of the protocol: as §1
Experiment [10] has as its system JSC-1 (B-Cell Non-Hodgkin's Lymphoma). The method in brief: as §1
Experiment [11] deals with NCI-H1650 (Lung Adenocarcinoma). The method in brief:
as §1

The test system of experiment [12] is NCI-H2141 (Small Cell Lung Carcinoma). A digest of the protocol:
as §1

For the compound `CN(CCO)CC[C@H](CSc1ccccc1)Nc1ccc(S(=O)(=O)NC(=O)c2ccc(N3CCC([C@@H](O)c4ccccc4-c4ccc(Cl)cc4)CC3)cc2)cc1S(=O)(=O)C(F)(F)F` [AZD4320] + C[C@@H]1COCCN1C2=NC(=NC(=C2)C3(CC3)[S@](=N)(=O)C)C4=C5C=CNC5=NC=C4 [AZD6738] (first compound max 1 µM, 7x7, partner max 10 µM), the Bliss excess was 0.0063 in the experiment on LN-405 (Glioblastoma); 0.0426 in experiment [1]; -0.157 in the experiment on A498 (Kidney Carcinoma); -0.0462 with NCI-H2591 (Mesothelioma); 0.0107 with 8-MG-BA (Glioblastoma); -0.0049 with ARH-77 (Non-Cancerous). The Bliss excess in [2] is -0.0433; with IGR-37 (Melanoma), 0.0151; in [3], 0.0289; in [4], -0.0386; in experiment [5], -0.0078; in [6], 0.0228. Besides, the Bliss excess in experiment [7] is 0.0076; in the experiment with FU97 (Gastric Carcinoma), -0.0215; in the experiment with U-2-OS (Osteosarcoma), -0.0394; in experiment [8] it was -0.0807; in [9], 0.0896; in [10], -0.0276. Moreover, in [11], the Bliss excess is 0.0045.

Take `COc1nnc2ccc(N3CCC(c4ccc(OCCN5CCN(C)C(=O)[C@H]5C)cc4)CC3)nn12` [AZD5153] + CN(CC[C@H](CSC1=CC=CC=C1)NC2=C(C=C(C=C2)S(=O)(=O)NC(=O)C3=CC=C(C=C3)N4CCC(CC4)[C@H](C5=CC=CC=C5C6=CC=C(C=C6)Cl)O)S(=O)(=O)C(F)(F)F)CCO [AZD4320] (first compound max 1 µM, 7x7, partner max 1 µM): the Bliss excess in the experiment with LN-405 (Glioblastoma) was 0.0448; in experiment [1] it was -0.0125; with A498 (Kidney Carcinoma), 0.0103; in the experiment on NCI-H2591 (Mesothelioma), 0.0088; in the experiment on 8-MG-BA (Glioblastoma), 0.002; in the experiment with ARH-77 (Non-Cancerous), -0.019. Besides, the Bliss excess in experiment [3] was -0.0119; in experiment [5], -0.0052; in experiment [6], 0.0704; in [7] it was 0.0462; in the experiment with U-2-OS (Osteosarcoma) it was 0.0178; in [8], 0.0115. Further, the results for the Bliss excess in experiment [10], in experiment [12] and in [11] were -0.0243, 0.048 and -0.0124, respectively.

`Cc1c2c(nn1C)CSCc1cc(n(C)n1)CSc1cc(c3ccccc3c1)OCCCc1c(C(=O)O)n(C)c3c-2c(Cl)ccc13` [AZD5991] + C1CN(CCC1(C(=O)N[C@@H](CCO)C2=CC=C(C=C2)Cl)N)C3=NC=NC4=C3C=CN4 [Capivasertib] (first compound max 1 µM, 7x7, partner max 3 µM): the Bliss excess in the experiment with LN-405 (Glioblastoma) is 0.0158; in experiment [1], -0.0211; with A498 (Kidney Carcinoma) it was -0.0091; with NCI-H2591 (Mesothelioma), -0.0306; in the experiment on 8-MG-BA (Glioblastoma) it was 0.0821; with ARH-77 (Non-Cancerous), -0.037. The Bliss excess is 0.119 in [2]; 0.0559 in experiment [3]; -0.0003 in [4]; -0.0021 in experiment [5]; 0.0568 in [6]; 0.0354 in experiment [7]. Besides, the Bliss excess in the experiment with FU97 (Gastric Carcinoma) is -0.0174; in the experiment with U-2-OS (Osteosarcoma) it was 0.0114; in experiment [8] it was -0.0596; in [9] it was -0.132; in experiment [10], -0.0085; in experiment [12], 0.0003. For the same compound, in [11], the Bliss excess was determined as 0.012.

`Cc1c2c(nn1C)CSCc1cc(n(C)n1)CSc1cc(c3ccccc3c1)OCCCc1c(C(=O)O)n(C)c3c-2c(Cl)ccc13` [AZD5991] + CCN(CCO)CCCOc1ccc2c(Nc3cc(CC(=O)Nc4cccc(F)c4)[nH]n3)ncnc2c1 [AZD2811] (first compound max 1 µM, 7x7, partner max 1 µM): the Bliss excess in the experiment on LN-405 (Glioblastoma) is 0.0122; in [1], 0.072; in the experiment with A498 (Kidney Carcinoma), 0.0054; in the experiment on NCI-H2591 (Mesothelioma), 0.0208; in the experiment with 8-MG-BA (Glioblastoma), 0.114; in the experiment with ARH-77 (Non-Cancerous) it was -0.0146. Besides, the Bliss excess in [2] is 0.0418; in the experiment on IGR-37 (Melanoma) it was 0.0533; in [3] it was 0.105; in [4], 0.0619; in [5], 0.108; in experiment [6], 0.0098. Moreover, the Bliss excess in experiment [7] is 0.0619; in the experiment on U-2-OS (Osteosarcoma), 0.0091; in [8], -0.0634; in [9] it was 0.0918; in [10], 0.123; in experiment [12] it was 0.0657. Also, the Bliss excess in experiment [11] was 0.0357.

For `CC(=O)c1c(C)c2cnc(Nc3ccc(N4CCNCC4)cn3)nc2n(C2CCCC2)c1=O` [Palbociclib] + CN(CC[C@H](CSC1=CC=CC=C1)NC2=C(C=C(C=C2)S(=O)(=O)NC(=O)C3=CC=C(C=C3)N4CCC(CC4)[C@H](C5=CC=CC=C5C6=CC=C(C=C6)Cl)O)S(=O)(=O)C(F)(F)F)CCO [AZD4320] (first compound max 10 µM, 7x7, partner max 1 µM), the Bliss excess in the experiment on LN-405 (Glioblastoma) was -0.0276; in [1], -0.0702; in the experiment on A498 (Kidney Carcinoma), -0.134; in the experiment with NCI-H2591 (Mesothelioma) it was -0.0845; with 8-MG-BA (Glioblastoma) it was -0.001; in the experiment on ARH-77 (Non-Cancerous), -0.0498. In addition, the Bliss excess is -0.0722 in experiment [3]; -0.0669 in [5]; -0.0549 in experiment [6]; -0.078 in experiment [7]; -0.0727 in the experiment on U-2-OS (Osteosarcoma); -0.0999 in experiment [8]. Further, the Bliss excess in experiment [10] is -0.0418; in experiment [12], -0.067; in [11] it was -0.0805.

Take `CCc1c2c(nc3ccc(O)cc13)-c1cc3c(c(=O)n1C2)COC(=O)[C@]3(O)CC` [SN-38] + O=C(c1cc(Cc2n[nH]c(=O)c3ccccc23)ccc1F)N1CCN(C(=O)C2CC2)CC1 [Olaparib] (first compound max 0.3 µM, 7x7, partner max 10 µM): the Bliss excess in the experiment on LN-405 (Glioblastoma) was -0.0524; in the experiment with A498 (Kidney Carcinoma) it was 0.036; in the experiment on NCI-H2591 (Mesothelioma), -0.0219; in the experiment with 8-MG-BA (Glioblastoma) it was 0.0671; with ARH-77 (Non-Cancerous), 0.0446; in [2] it was 0.0626. In addition, the Bliss excess with IGR-37 (Melanoma) was 0.0226; in experiment [4] it was 0.05; in [5] it was 0.0546; in [7], 0.0512; with FU97 (Gastric Carcinoma), -0.0043; in the experiment on U-2-OS (Osteosarcoma), 0.0159. For the same compound, the Bliss excess in experiment [9] was 0.0276; in [10] it was -0.0044; in experiment [12], 0.0521; in [11] it was 0.0138.

Turning to `C[C@@H](c1ccc2nccn2c1)n1nnc2ncc(-c3cnn(C)c3)nc21` [Savolitinib] + CN(CC[C@H](CSC1=CC=CC=C1)NC2=C(C=C(C=C2)S(=O)(=O)NC(=O)C3=CC=C(C=C3)N4CCC(CC4)[C@H](C5=CC=CC=C5C6=CC=C(C=C6)Cl)O)S(=O)(=O)C(F)(F)F)CCO [AZD4320] (first compound max 1 µM, 7x7, partner max 1 µM), the Bliss excess was -0.0518 in the experiment on LN-405 (Glioblastoma); -0.0647 in experiment [1]; -0.0589 with A498 (Kidney Carcinoma); -0.0714 in the experiment on NCI-H2591 (Mesothelioma); -0.0399 in the experiment on 8-MG-BA (Glioblastoma); -0.0322 with ARH-77 (Non-Cancerous). Further, the Bliss excess was -0.0198 in [3]; -0.045 in experiment [5]; -0.0188 in experiment [6]; -0.0651 in experiment [7]; -0.0128 with U-2-OS (Osteosarcoma); -0.0618 in experiment [8]. Also, the values for the Bliss excess in experiment [10], in experiment [12] and in [11] were -0.0221, -0.0695 and -0.0646, respectively.

For `CC(=O)Nc1cccc(-n2c(=O)n(C3CC3)c(=O)c3c(Nc4ccc(I)cc4F)n(C)c(=O)c(C)c32)c1` [Trametinib] + Cc1nc(-c2cn3c(n2)-c2ccc(-c4cnn(C(C)(C)C(N)=O)c4)cc2OCC3)n(C(C)C)n1 [Taselisib] (first compound max 1 µM, 7x7, partner max 10 µM), the Bliss excess in the experiment with LN-405 (Glioblastoma) worked out at 0.0342; in experiment [1], 0.136; in the experiment with A498 (Kidney Carcinoma), 0.0344; in the experiment on NCI-H2591 (Mesothelioma) it was 0.0206; in the experiment on 8-MG-BA (Glioblastoma) it was 0.143; with ARH-77 (Non-Cancerous) it was 0.0785. Further, the Bliss excess in experiment [2] is 0.16; with IGR-37 (Melanoma), 0.0677; in [3], 0.0455; in experiment [4] it was 0.0124; in experiment [5], 0.0809; in [6], 0.198. Besides, the Bliss excess in experiment [7] is 0.144; with U-2-OS (Osteosarcoma), 0.122; in experiment [8], -0.0198; in experiment [9], 0.0204; in [10], 0.218; in experiment [12], -0.0299. Also, the Bliss excess in experiment [11] was determined as 0.0443.

Source of the values: the supplement of paper PMC11061612.
